Holding throughout (type): biochemical
The target of one experiment is T1, GRK2 (Homo sapiens, UniProt P25098).
T1 sequence (P25098 1-689): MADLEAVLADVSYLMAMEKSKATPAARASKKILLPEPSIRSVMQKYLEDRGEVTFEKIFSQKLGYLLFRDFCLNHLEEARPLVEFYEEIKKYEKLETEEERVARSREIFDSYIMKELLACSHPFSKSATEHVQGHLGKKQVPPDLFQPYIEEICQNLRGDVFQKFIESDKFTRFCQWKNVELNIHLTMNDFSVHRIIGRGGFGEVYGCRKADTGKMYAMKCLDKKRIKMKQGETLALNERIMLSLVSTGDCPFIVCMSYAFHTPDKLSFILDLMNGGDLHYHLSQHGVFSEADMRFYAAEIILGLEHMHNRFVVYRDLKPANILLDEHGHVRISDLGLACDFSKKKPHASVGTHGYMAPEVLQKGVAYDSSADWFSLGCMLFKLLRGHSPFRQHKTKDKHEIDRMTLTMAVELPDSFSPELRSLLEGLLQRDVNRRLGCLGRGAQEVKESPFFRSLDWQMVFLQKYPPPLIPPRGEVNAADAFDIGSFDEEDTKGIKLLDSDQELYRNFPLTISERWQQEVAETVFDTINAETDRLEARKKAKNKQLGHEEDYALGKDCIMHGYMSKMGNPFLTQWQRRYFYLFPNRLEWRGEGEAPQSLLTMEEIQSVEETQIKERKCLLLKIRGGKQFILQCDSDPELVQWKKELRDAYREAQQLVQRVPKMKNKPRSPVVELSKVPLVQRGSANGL
Put plainly: kinase inhibition, IC50 of Blend A, ingredients and control.

For another experiment, the target named is GSK3α (Homo sapiens, UniProt P49840). The experiment is described as above. As to conditions: follow up investigation; for inositol the upper limit of use (1 mM) was used in the calculation.
A further experiment deals with GSK3β (Homo sapiens, UniProt P49841). Described as above. The note with it: follow up investigation; for inositol the upper limit of use (1 mM) was used in the calculation.
Another experiment has as its target ERK1 (Homo sapiens, UniProt P27361). Kind of experiment: kinase inhibition screen, IC50 of Blend A vs control compound. As to conditions: initial investigation, Table 17; Blend A head reads IC50* (asterisk unexplained). An excerpt: The cellular mechanism of action of known pharmaceutical compounds targeting mental health require the inhibition of individual enzymes. For example, one of the most well-known pharmaceuticals utilized in the mental health space, lithium, can trace its efficacy in part to the inhibition of an enzyme called glycogen synthase kinase 3 (GSK3). A technique similar to one used in the pharmaceutical industry was used to determine study a mood support composition. See, e.g., Duong-Ly, K. C. & Peterson, J. R. Curr. Protoc. Pharmacol. Chapter 2, Unit2.9 (2013); Ma, H. et al. Expert Opin. Drug Discov.
Within the body, protein kinases are responsible for carrying out cellular and intracellular actions, such as cell-to-cell signaling, neurotransmitter regulation, and hormone release. Several protein kinases are known to influence mood, and many are targets of therapeutic drugs. As a natural alternative to pharmaceuticals, Blend A was screened for efficacy of inhibiting 18 common, mood-related drug targets, including 17 kinases and 1 enzyme.

As usually defined, the IC50 is the midpoint of a concentration-inhibition curve. A high value points to a need for much substance.

Sequence of GSK3β (P49841 whole entry, species assumed): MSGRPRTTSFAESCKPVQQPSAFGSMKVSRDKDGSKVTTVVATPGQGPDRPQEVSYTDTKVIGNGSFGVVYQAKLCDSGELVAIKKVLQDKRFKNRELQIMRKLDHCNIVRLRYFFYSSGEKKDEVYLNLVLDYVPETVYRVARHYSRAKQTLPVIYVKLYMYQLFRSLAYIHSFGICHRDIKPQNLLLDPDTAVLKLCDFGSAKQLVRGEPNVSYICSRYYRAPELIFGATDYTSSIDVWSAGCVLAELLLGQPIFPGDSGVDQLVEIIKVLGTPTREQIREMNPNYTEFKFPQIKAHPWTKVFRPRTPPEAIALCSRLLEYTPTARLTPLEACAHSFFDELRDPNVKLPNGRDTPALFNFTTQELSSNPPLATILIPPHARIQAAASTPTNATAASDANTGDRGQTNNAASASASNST
Sequence of GSK3α (P49840 whole entry, species assumed): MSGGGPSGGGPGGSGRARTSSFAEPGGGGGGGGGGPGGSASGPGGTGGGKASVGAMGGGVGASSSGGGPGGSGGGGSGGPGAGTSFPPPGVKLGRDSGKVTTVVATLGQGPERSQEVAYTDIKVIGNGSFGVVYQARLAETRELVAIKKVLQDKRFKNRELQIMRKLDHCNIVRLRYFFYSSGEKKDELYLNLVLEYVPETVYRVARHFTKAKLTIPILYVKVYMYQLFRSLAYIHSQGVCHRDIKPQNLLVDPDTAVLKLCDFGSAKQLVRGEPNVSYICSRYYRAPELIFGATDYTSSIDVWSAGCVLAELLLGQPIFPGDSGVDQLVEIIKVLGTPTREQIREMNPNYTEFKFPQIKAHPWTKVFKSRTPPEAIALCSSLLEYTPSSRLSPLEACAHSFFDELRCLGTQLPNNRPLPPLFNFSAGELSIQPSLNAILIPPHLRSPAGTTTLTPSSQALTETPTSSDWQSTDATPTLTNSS
Sequence of ERK1 (P27361 whole entry, species assumed): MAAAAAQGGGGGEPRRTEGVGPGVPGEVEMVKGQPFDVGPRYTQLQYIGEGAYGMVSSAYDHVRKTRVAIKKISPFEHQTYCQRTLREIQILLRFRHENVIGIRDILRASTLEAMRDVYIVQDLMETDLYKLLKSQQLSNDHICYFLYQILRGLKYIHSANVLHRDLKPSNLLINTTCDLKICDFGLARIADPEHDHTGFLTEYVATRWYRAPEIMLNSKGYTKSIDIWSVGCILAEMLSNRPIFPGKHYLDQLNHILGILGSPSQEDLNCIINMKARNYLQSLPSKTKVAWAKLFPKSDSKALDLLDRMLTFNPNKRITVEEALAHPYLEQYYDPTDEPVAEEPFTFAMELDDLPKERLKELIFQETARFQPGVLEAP

On to `O[C@H]1[C@H](O)[C@@H](O)[C@H](O)[C@@H](O)[C@H]1O` [Inositol, inositol], for which the “efficacy for inhibiting the target, in words” value on GRK2 (follow up investigation, for inositol the upper limit of use (1 mM) was used in the calculation) was “did not demonstrate efficacy”; on GSK3α, “did not demonstrate efficacy”; at GSK3β, “did not demonstrate efficacy”.
Regarding `O=C(Nc1ccc2[nH]nc(-c3ccncc3)c2c1)[C@@H]1CCN(CC(=O)N2CCN(c3ccc(-c4ncccn4)cc3)CC2)C1` [SCH772984], at ERK1, half-maximal inhibition (IC50) was put at 5.57 nM.
In the case of `CN[C@@H]1C[C@H]2O[C@@](C)([C@@H]1OC)n1c3ccccc3c3c4c(c5c6ccccc6n2c5c31)C(=O)NC4` [STAUROSPORINE, staurosporine, reference compound], the “Reciprocal Sum” value at GRK2 (Table 19, sum of the two analyses, each 50% weight) was found to be 1.60E+06.

These data come from US20250352596A1, “DIETARY SUPPLEMENTS FOR MOOD SUPPORT” (Melaleuca, Inc., priority 2024, published 2025).
